The text below walks through data of ChEMBL document CHEMBL4483862, “Open-source discovery of chemical leads for next-generation chemoprotective antimalarials” (2018).

In this assay the test system is Plasmodium berghei. Description: Luciferase/luciferin-expressing antifolate-resistant parasites were used to infect a culture of HepG2 cells that were pre-incubated with compounds. Infected hepatocytes emit light due to the luciferase reaction. Assay results are presented as the percent inhibition of light emission compared to control. […]. The class given is functional. Particulars: sporozoite; for IC90: read-out: LUCIFERASE INFECTION ASSAY - IC90.

[1] abbreviates: read-out: LUCIFERASE INFECTION ASSAY - IC50.

Consider `Cc1ccc(C(C)NC(=O)Cc2c(C)[nH]c(-c3ccccn3)nc2=O)cc1` (stereo not drawn), for which the IC90 is above 10 µM. In addition, the IC50 (HEPG2TOX_HILL_SLOPE 4.86, HEPG2TOX_R_SQUARED 0.498, PBLUC_HILL_SLOPE 12, PBLUC_R_SQUARED 0.399, read-out: LUCIFERASE INFECTION ASSAY - IC50) amounted to 9.36 µM.

Regarding `COc1ccc(C(N)=O)c(OCCC23CC4CC(CC(C4)C2)C3)c1`, the 90% effect concentration (IC90) was above 10 µM. Moreover, the 50% inhibitory concentration (IC50) (PBLUC_HILL_SLOPE 2.6, PBLUC_R_SQUARED 0.547, read-out: LUCIFERASE INFECTION ASSAY - IC50) was 6.07 µM.

Turning to `CCn1c(O)c(C2NCCc3c2[nH]c2ccc(OC)cc32)c(=O)[nH]c1=O` (stereo not drawn), the 90% effect concentration (IC90) stood at 4.71 µM. Moreover, for the setting “HEPG2TOX_HILL_SLOPE 0.178, HEPG2TOX_R_SQUARED 0.706, PBLUC_HILL_SLOPE 1.13, PBLUC_R_SQUARED 0.918, read-out: LUCIFERASE INFECTION ASSAY - IC50”, the IC50 amounted to 0.675 µM.

As for `COCCCN1C(=O)N(Cc2ccc3ccccc3c2)C(=O)C12CCN(Cc1ccc(C)cc1)CC2`, the IC90 was above 6.8 µM. Also, the concentration for half-maximal inhibition (IC50) (PBLUC_HILL_SLOPE 3.14, PBLUC_R_SQUARED 0.039, read-out: LUCIFERASE INFECTION ASSAY - IC50) came out at 4.02 µM.

Regarding `CCN1CCCC1CNCC(=O)Nc1cc(Cl)ccc1C#N` (stereo not drawn), the IC90 is above 10 µM. The half-inhibitory concentration (IC50) under setting [1] is above 10 µM.

On to `CCOC(=O)c1c(C)[nH]c(C(=O)COC(=O)c2ccc(CO)cc2)c1C`, for which the concentration for an effect of 90% (IC90) was above 10 µM. Also, the IC50 under setting [1] was above 10 µM.

Turning to `CC1C/C(=N\Nc2cc(Cl)cc(Cl)c2)c2cc(Cl)ccc2S1(=O)=O` (stereo not drawn), the IC90 was above 8.17 µM. Under setting [1], the half-inhibitory concentration (IC50) is 6.27 µM.

Take `O=[N+]([O-])c1cnc(Sc2nc3cc(Cl)ccc3s2)s1`: the concentration for an effect of 90% (IC90) is above 10 µM. Under “FFLUC_HILL_SLOPE 97.7, FFLUC_R_SQUARED 0.0466, read-out: LUCIFERASE INFECTION ASSAY - IC50”, the IC50 was above 10 µM.

Consider `CCOC(=O)/C=C/C(=O)OCC(=O)NC(c1ccccc1)c1ccccc1`, for which the concentration for an effect of 90% (IC90) was above 10 µM. For the same compound, the IC50 under setting [1] is above 10 µM.

In the case of `O=C(Nc1ccc(Cl)cc1)/C(=C/c1ccc([N+](=O)[O-])cc1)c1nc2ccccc2s1`, the 90% effect concentration (IC90) was above 10 µM. The 50% inhibitory concentration (IC50) (PBLUC_HILL_SLOPE 3.91, PBLUC_R_SQUARED 0.341, read-out: LUCIFERASE INFECTION ASSAY - IC50) was 7.67 µM.

On to `O=C1N=C(NC2CCCCC2)S/C1=C\c1cccc(C(F)(F)F)c1`, for which the concentration for an effect of 90% (IC90) is above 10 µM. Further, under setting [1], the IC50 was above 10 µM.

With `CN(C(=O)CN1C(=O)NC(c2ccccc2)(c2ccccc2)C1=O)C1CCCc2ccccc21` (stereo not drawn), the IC90 is above 10 µM. Also, for the setting “PBLUC_HILL_SLOPE 2.94, PBLUC_R_SQUARED 0.848, read-out: LUCIFERASE INFECTION ASSAY - IC50”, the IC50 was found to be 5.62 µM.

`O=C(Nc1ccc(Oc2ccccc2)cc1)c1csc(C(O)c2cccc(Cl)c2)n1` (stereo not drawn): the IC90 worked out at 5.62 µM. Where the note is “HEPG2TOX_HILL_SLOPE 2.05, HEPG2TOX_R_SQUARED 0.879, PBLUC_HILL_SLOPE 3.47, PBLUC_R_SQUARED 0.401, read-out: LUCIFERASE INFECTION ASSAY - IC50”, the half-maximal inhibitory concentration (IC50) came to 2.99 µM.

Turning to `CCCc1cc(NCc2ccccn2)n2ncc(-c3ccccc3)c2n1`, the IC90 was above 9.61 µM. For the setting “PBLUC_HILL_SLOPE 2.13, PBLUC_R_SQUARED 0.117, read-out: LUCIFERASE INFECTION ASSAY - IC50”, the half-maximal inhibitory concentration (IC50) stood at 5.6 µM.

For the compound `Fc1ccc(-c2csc3ncnc(Sc4nnnn4-c4ccccc4)c23)cc1`, the IC90 is 3.53 µM. Moreover, the IC50 (HEPG2TOX_HILL_SLOPE 2.6, HEPG2TOX_R_SQUARED 0.978, PBLUC_HILL_SLOPE 15.6, PBLUC_R_SQUARED 0.498, read-out: LUCIFERASE INFECTION ASSAY - IC50) was 3.07 µM.

On to `CCOC(=O)C1=C(C)NC(C)=C(C(=O)OCC)C1C(=O)OCC(=O)Nc1c(Br)cc(C)cc1Br`, for which the concentration for an effect of 90% (IC90) is above 10 µM. The IC50 (HEPG2TOX_HILL_SLOPE 0.766, HEPG2TOX_R_SQUARED 0.947, PBLUC_HILL_SLOPE 2.01, PBLUC_R_SQUARED 0.575, read-out: LUCIFERASE INFECTION ASSAY - IC50) was 4.48 µM.

Consider `O=C(Nc1ccc(OC(F)(F)F)cc1)Nc1ccccc1SCC(O)Cn1ccc(C(F)(F)F)n1` (stereo not drawn), for which the IC90 was above 6.34 µM. Moreover, the IC50 (PBLUC_HILL_SLOPE 15.1, PBLUC_R_SQUARED 0.225, read-out: LUCIFERASE INFECTION ASSAY - IC50) is 5.88 µM.

For the compound `COc1ccccc1-c1nc2c3c(C)c(C)n(CCCO)c3ncn2n1`, the IC90 was above 9.39 µM. Besides, the IC50 (PBLUC_HILL_SLOPE 14, PBLUC_R_SQUARED 0.452, read-out: LUCIFERASE INFECTION ASSAY - IC50) came out at 8.69 µM.

Turning to `O=C(/C=C/c1ccccc1)N1CCN(S(=O)(=O)c2ccccc2C(F)(F)F)CC1`, the IC90 was determined as 6.57 µM. The IC50 (HEPG2TOX_HILL_SLOPE 0.114, HEPG2TOX_R_SQUARED 0.819, PBLUC_HILL_SLOPE 7.50, 16.5, PBLUC_R_SQUARED 0.237, 0.462, read-out: LUCIFERASE INFECTION ASSAY - IC50) amounted to 5.45 µM.

As to `CCOc1ccc(-c2nnc(SCc3csc(Nc4ccc(C)cc4)n3)n2-c2ccccc2F)cc1`, the IC90 was above 10 µM. Besides, the IC50 (HEPG2TOX_HILL_SLOPE 1.93, HEPG2TOX_R_SQUARED 0.706, PBLUC_HILL_SLOPE 2.19, PBLUC_R_SQUARED 0.586, read-out: LUCIFERASE INFECTION ASSAY - IC50) came to 5.29 µM.

Consider `COc1cc2c(cc1OC)CN(C(=O)CCN1c3ccccc3Sc3ccccc31)CC2`, for which the IC90 was determined as 8.48 µM. Moreover, under “HEPG2TOX_HILL_SLOPE 15.5, HEPG2TOX_R_SQUARED 0.469, PBLUC_HILL_SLOPE 3.54, PBLUC_R_SQUARED 0.432, read-out: LUCIFERASE INFECTION ASSAY - IC50”, the IC50 turned out to be 4.56 µM.

As to `COc1cc(-c2cnc3cnc(-c4ccccc4Cl)cn23)cc(OC)c1OC`, the IC90 is above 8.34 µM. Further, the IC50 (HEPG2TOX_HILL_SLOPE 7.56, HEPG2TOX_R_SQUARED 0.703, PBLUC_HILL_SLOPE 2.2, PBLUC_R_SQUARED 0.686, read-out: LUCIFERASE INFECTION ASSAY - IC50) was 6.11 µM.

Regarding `Cc1cc2nc3n(c2cc1C)C1(Nc2ccccc2-3)C(=O)Nc2ccccc21` (stereo not drawn), the IC90 was 3.6 µM. Further, the half-maximal inhibitory concentration (IC50) (PBLUC_HILL_SLOPE 13.5, PBLUC_R_SQUARED 0.192, read-out: LUCIFERASE INFECTION ASSAY - IC50) worked out at 3.06 µM.

Consider `O=c1[nH]ncc(NCCCc2ccccc2)c1Cl`, for which the IC90 is above 10 µM. Further, the half-maximal inhibitory concentration (IC50) (HEPG2TOX_HILL_SLOPE 3.21, 1.90, HEPG2TOX_R_SQUARED 0.492, 0.980, PBLUC_HILL_SLOPE 2.78, PBLUC_R_SQUARED 0.0147, read-out: LUCIFERASE INFECTION ASSAY - IC50) is 8.32 µM.

For `CC(C)N1C(=O)N(CCc2ccccc2)C2(CCN(Cc3ccccc3)CC2)C1=O`, the IC90 was above 8.14 µM. The half-maximal inhibitory concentration (IC50) (HEPG2TOX_HILL_SLOPE 15.6, HEPG2TOX_R_SQUARED 0.916, PBLUC_HILL_SLOPE 3.95, PBLUC_R_SQUARED 0.588, read-out: LUCIFERASE INFECTION ASSAY - IC50) is 4.99 µM.

For the compound `N#Cc1ccc(/C=C/C(=O)c2cccc3ccccc23)cc1`, the concentration for an effect of 90% (IC90) was found to be 7.94 µM. Moreover, where the note is “HEPG2TOX_HILL_SLOPE 12.4, HEPG2TOX_R_SQUARED 0.741, PBLUC_HILL_SLOPE 61.7, PBLUC_R_SQUARED 0.602, read-out: LUCIFERASE INFECTION ASSAY - IC50”, the IC50 turned out to be 7.66 µM.

Regarding `O=C(COc1ccccc1C(=O)NCc1ccccc1)NC(c1ccc(F)cc1)c1cccs1` (stereo not drawn), the IC90 is above 10 µM. The half-inhibitory concentration (IC50) under setting [1] amounted to 8.41 µM.

Regarding `CCOC(=O)c1nc(N(CCc2ccccc2)C(=O)c2cnc3c(cnn3C(C)C)c2)sc1C`, the IC90 is above 10 µM. Also, under setting [1], the half-maximal inhibitory concentration (IC50) was above 10 µM.

`Cc1ccc(-c2noc(CCC(=O)N3CCN(C/C=C/c4ccccc4)CC3)n2)cc1`: the IC90 is above 10 µM. In addition, the 50% inhibitory concentration (IC50) (HEPG2TOX_HILL_SLOPE 6.22, HEPG2TOX_R_SQUARED 0.551, PBLUC_HILL_SLOPE 3.17, PBLUC_R_SQUARED 0.265, read-out: LUCIFERASE INFECTION ASSAY - IC50) worked out at 5.07 µM.

For `CCCCC1(Cc2ccccc2)C(=O)c2cccc3c4ccccc4n(c23)C1=O` (stereo not drawn), the IC90 is above 8.65 µM. Also, the half-maximal inhibitory concentration (IC50) (PBLUC_HILL_SLOPE 2.19, PBLUC_R_SQUARED 0.0283, read-out: LUCIFERASE INFECTION ASSAY - IC50) was 8.01 µM.

With `N#Cc1ccc(C(=O)Nc2nc(-c3c[nH]c4ccccc34)cs2)cc1`, the IC90 is above 10 µM. In addition, the concentration for half-maximal inhibition (IC50) (PBLUC_HILL_SLOPE 15.6, PBLUC_R_SQUARED 0.4, read-out: LUCIFERASE INFECTION ASSAY - IC50) was determined as 9.53 µM.

`Cc1cc(NCc2ccccn2)n2ncc(-c3ccccc3Cl)c2n1`: the IC90 was above 9.43 µM. In addition, the IC50 (PBLUC_HILL_SLOPE 4.03, PBLUC_R_SQUARED 0.181, read-out: LUCIFERASE INFECTION ASSAY - IC50) was 5.66 µM.

As for `CC(C)(C)c1ccc(-c2nc(-c3ccc(C(F)(F)F)cc3)cs2)cc1`, the 90% effect concentration (IC90) is above 9.13 µM. In addition, for the setting “FFLUC_HILL_SLOPE 12.9, FFLUC_R_SQUARED 0.362, PBLUC_HILL_SLOPE 0.825, PBLUC_R_SQUARED 0.291, read-out: LUCIFERASE INFECTION ASSAY - IC50”, the half-inhibitory concentration (IC50) stood at 3.25 µM.

As to `CCC(C)(C)c1ccc(Oc2ccc(NC(=O)CSc3nnc(-c4ccccc4)[nH]3)cc2)cc1`, the IC90 worked out at 7.78 µM. In addition, under “HEPG2TOX_HILL_SLOPE 9.08, HEPG2TOX_R_SQUARED 0.57, PBLUC_HILL_SLOPE 3.67, PBLUC_R_SQUARED 0.581, read-out: LUCIFERASE INFECTION ASSAY - IC50”, the concentration for half-maximal inhibition (IC50) was 4.28 µM.

By IC50 is commonly meant the midpoint of a concentration-inhibition curve. For orientation: IC90 means the point of the concentration-response curve where the effect stands at 90%.
